Converted amounts (≈) assume the structure as drawn. Read-outs that look alike come from different tables or passages of the source.
Columns and labels:
staphylococci = settings: according to EUCAST ref 33; cited from earlier work
[1] = test system: Staphylococcus aureus ATCC 29213, CCM 4223; experiment: Antibacterial microdilution broth method, S. aureus; type: cell-based
[2] = test system: methicillin-resistant Staphylococcus aureus ATCC 43300, CCM 4750 (MRSA); experiment: Antibacterial microdilution broth method, MRSA; type: cell-based; settings: Staphylococcus aureus
[3] = test system: Staphylococcus epidermidis H 6966/08; experiment: Antibacterial microdilution broth method, S. epidermidis; type: cell-based; settings: Staphylococcus epidermidis, H6966/08, S. epidermidis
[4] = test system: Enterococcus faecalis ATCC 29212, CCM 4224; experiment: Antibacterial microdilution broth method, E. faecalis; type: cell-based; settings: Enterococcus faecalis
[5] = test system: Escherichia coli ATCC 25922, CCM 3954; experiment: Antibacterial microdilution broth method, E. coli; type: cell-based; settings: Escherichia coli
[6] = test system: Pseudomonas aeruginosa ATCC 27853, CCM 3955; experiment: Antibacterial microdilution broth method, P. aeruginosa; type: cell-based; settings: Pseudomonas aeruginosa, P. aeruginosa
[7] = test system: Mycobacterium tuberculosis H37Rv (331/88); experiment: Antimycobacterial micromethod in Šula's medium, M. tuberculosis; type: cell-based
[8] = test system: Mycobacterium avium 330/88; experiment: Antimycobacterial micromethod in Šula's medium, M. avium; type: cell-based
[9] = test system: Mycobacterium kansasii 235/80; experiment: Antimycobacterial micromethod in Šula's medium, M. kansasii 235/80; type: cell-based
[10] = test system: M. kansasii 6509/96 (clinical isolate); experiment: Antimycobacterial micromethod in Šula's medium, M. kansasii 6509/96; type: cell-based; settings: Mycobacterium kansasii
[11] = test system: Candida albicans ATCC 44859; experiment: Antifungal microdilution broth method, C. albicans; type: cell-based
Experimental: (§1) The antifungal properties were evaluated against five yeast strains, namely: Candida albicans ATCC 44859, Candida tropicalis 156, Candida krusei […], Candida glabrata 20/I, Trichosporon […] 1188 and three strains of filamentous fungi: Aspergillus fumigatus 231, Lichtheimia corymbifera 272, and Trichophyton interdigitale 445. A microdilution broth method was performed according to EUCAST II, III instructions with slight modifications. Briefly, tested compounds were dissolved in DMSO and diluted in a twofold manner with RPMI-1640 medium with L-glutamine, supplemented with 2% glucose (w/v) and buffered to pH 7.0 with 3 morpholinopropane-1-sulfonic acid (all components were purchased from Sigma-Aldrich, USA). […] Positive controls consisted of test microbe solely, while negative controls consisted of medium and DMSO. Internal quality control was included too. Visual inspection was used for MIC endpoints evaluation. The experiments were conducted in duplicates. For the results to be valid, the difference in MIC determined from two parallel measurements must not be greater than one step on the dilution scale. PABA and triazole antimycotic drug fluconazole were involved as the reference compounds.

Candida tropicalis 156 = experiment: Antifungal microdilution broth method, C. tropicalis; type: cell-based
Experimental: as §1

Candida krusei E28 = experiment: Antifungal microdilution broth method, C. krusei; type: cell-based; settings: Pichia kudriavzevii
Experimental: as §1

Candida glabrata 20/I = experiment: Antifungal microdilution broth method, C. glabrata; type: cell-based; settings: Nakaseomyces glabratus
Experimental: as §1

Trichosporon asahii 1188 = experiment: Antifungal microdilution broth method, T. asahii; type: cell-based
Experimental: as §1

[12] = test system: Aspergillus fumigatus 231; experiment: Antifungal microdilution broth method, A. fumigatus; type: cell-based
Experimental: as §1

[13] = test system: Lichtheimia corymbifera 272; experiment: Antifungal microdilution broth method, L. corymbifera; type: cell-based
Experimental: as §1

[14] = test system: Trichophyton interdigitale 445; experiment: Antifungal microdilution broth method, T. interdigitale; type: cell-based
Experimental: as §1

[15] = test system: four Gram-positive and four Gram-negative strains; experiment: Antibacterial activity; type: cell-based; settings: statement over the bacterial panel; time not stated
[16] = test system: Mtb. 331/88 and three non-tuberculous mycobacterial strains; experiment: Antimycobacterial activity; type: cell-based; settings: statement over four mycobacterial strains; time not stated
eight fungal strains = experiment: Antifungal activity; type: cell-based; settings: statement over the fungal panel; time not stated
Experimental: as §1

[17] = test system: ESBL-positive Klebsiella pneumoniae J 14368/08
[18] = test system: Klebsiella pneumoniae D 11750/08; experiment: Antibacterial microdilution broth method, K. pneumoniae; settings: K. pneumoniae D 11750/08; for MIC KP 24 h: 24 h incubation; for MIC KP 48 h: 48 h incubation
[19] = 24 h incubation, read-out: MIC SA 24 h
[20] = 48 h incubation, read-out: MIC SA 48 h
[21] = 24 h incubation, read-out: MIC MRSA 24 h
[22] = 48 h incubation, read-out: MIC MRSA 48 h
[23] = 24 h incubation, read-out: MIC SE 24 h
[24] = 48 h incubation, read-out: MIC SE 48 h
[25] = 24 h incubation, read-out: MIC EF 24 h
[26] = 48 h incubation, read-out: MIC EF 48 h
[27] = 24 h incubation, read-out: MIC EC 24 h
[28] = 48 h incubation, read-out: MIC EC 48 h
[29] = 24 h incubation, read-out: MIC PA 24 h
[30] = 48 h incubation, read-out: MIC PA 48 h
[31] = 336 h, 14 days incubation at 37 °C, read-out: MIC Mtb. 331/88 14 d
[32] = 504 h, 21 days incubation at 37 °C, read-out: MIC Mtb. 331/88 21 d
[33] = 330/88, 336 h, 14 days incubation at 37 °C, read-out: MIC M. avium 330/88 14 d
[34] = 330/88, 504 h, 21 days incubation at 37 °C, read-out: MIC M. avium 330/88 21 d
[35] = 235/80, 168 h, 7 days incubation at 37 °C, read-out: MIC M. kansasii 235/80 7 d
[36] = 235/80, 336 h, 14 days incubation at 37 °C, read-out: MIC M. kansasii 235/80 14 d
[37] = 235/80, 504 h, 21 days incubation at 37 °C, read-out: MIC M. kansasii 235/80 21 d
[38] = 168 h, 7 days incubation at 37 °C, read-out: MIC M. kansasii 6509/96 7 d
[39] = 336 h, 14 days incubation at 37 °C, read-out: MIC M. kansasii 6509/96 14 d
[40] = 504 h, 21 days incubation at 37 °C, read-out: MIC M. kansasii 6509/96 21 d
[41] = ATCC44859, 24 h, read-out: MIC CA 24 h
[42] = ATCC44859, 48 h, read-out: MIC CA 48 h

## O=C1CN(/N=C/c2ccc([N+](=O)[O-])o2)C(=O)N1 [nitrofurantoin]
staphylococci
  breakpoint for staphylococci: 32 to 64 µg/mL

## O=C(O)c1ccc(N=Cc2ccccc2O)cc1 [1a, 4-[(2-Hydroxybenzylidene)amino]benzoic acid]
[1]; [19]
  MIC: > 500 µM
[1]; [20]
  MIC: > 500 µM
[2]; [21]
  MIC: > 500 µM
[2]; [22]
  MIC: > 500 µM
[3]; [23]
  MIC: > 500 µM
[3]; [24]
  MIC: > 500 µM
[4]; [25]
  MIC: > 500 µM
[4]; [26]
  MIC: > 500 µM
[5]; [27]
  MIC: > 500 µM
[5]; [28]
  MIC: > 500 µM
[6]; [29]
  MIC: > 500 µM
[6]; [30]
  MIC: > 500 µM
[7]; [31]
  MIC: > 1000 µM
[7]; [32]
  MIC: > 1000 µM
[8]; [33]
  MIC: > 1000 µM
[8]; [34]
  MIC: > 1000 µM
[9]; [35]
  MIC: 1000 µM (≈ 241 µg/mL)
[9]; [36]
  MIC: > 1000 µM
[9]; [37]
  MIC: > 1000 µM
[10]; [38]
  MIC: 1000 µM (≈ 241 µg/mL)
[10]; [39]
  MIC: 1000 µM (≈ 241 µg/mL)
[10]; [40]
  MIC: 1000 µM (≈ 241 µg/mL)
[11]; [41]
  MIC: > 500 µM
[11]; [42]
  MIC: > 500 µM
Candida tropicalis 156; 24 h, read-out: MIC CT 24 h
  MIC: > 500 µM
Candida tropicalis 156; 48 h, read-out: MIC CT 48 h
  MIC: > 500 µM
Candida krusei E28; 24 h, read-out: MIC CK 24 h
  MIC: > 500 µM
Candida krusei E28; 48 h, read-out: MIC CK 48 h
  MIC: > 500 µM
Candida glabrata 20/I; 24 h, read-out: MIC CG 24 h
  MIC: > 500 µM
Candida glabrata 20/I; 48 h, read-out: MIC CG 48 h
  MIC: > 500 µM
Trichosporon asahii 1188; 24 h, read-out: MIC TA 24 h
  MIC: > 500 µM
Trichosporon asahii 1188; 48 h, read-out: MIC TA 48 h
  MIC: > 500 µM
[12]; 24 h, read-out: MIC AF 24 h
  MIC: > 500 µM
[12]; 48 h, read-out: MIC AF 48 h
  MIC: > 500 µM
[13]; 24 h, read-out: MIC LC 24 h
  MIC: > 500 µM
[13]; 48 h, read-out: MIC LC 48 h
  MIC: > 500 µM
[14]; 72 h, read-out: MIC TI 72 h
  MIC: > 500 µM
[14]; 120 h, read-out: MIC TI 120 h
  MIC: > 500 µM
[15]
  MIC, antibacterial activity: avoided any antibacterial action
[16]
  MIC, antimycobacterial activity: only negligible antimycobacterial activity
Eight fungal strains
  MIC, antifungal activity: no antimycotic potency
[17]
  MIC KP-E 24 h: >500 µM
  MIC KP-E 48 h: >500 µM
[18]
  MIC KP 24 h: >500 µM
  MIC KP 48 h: >500 µM

## O=C(O)c1ccc(N=Cc2ccc(O)cc2)cc1 [1t, 4-[(4-Hydroxybenzylidene)amino]benzoic acid]
[1]; [19]
  MIC: > 500 µM
[1]; [20]
  MIC: > 500 µM
[2]; [21]
  MIC: > 500 µM
[2]; [22]
  MIC: > 500 µM
[3]; [23]
  MIC: > 500 µM
[3]; [24]
  MIC: > 500 µM
[4]; [25]
  MIC: > 500 µM
[4]; [26]
  MIC: > 500 µM
[5]; [27]
  MIC: > 500 µM
[5]; [28]
  MIC: > 500 µM
[6]; [29]
  MIC: > 500 µM
[6]; [30]
  MIC: > 500 µM
[7]; [31]
  MIC: 1000 µM (≈ 241 µg/mL)
[7]; [32]
  MIC: 1000 µM (≈ 241 µg/mL)
[8]; [33]
  MIC: 1000 µM (≈ 241 µg/mL)
[8]; [34]
  MIC: > 1000 µM
[9]; [35]
  MIC: 1000 µM (≈ 241 µg/mL)
[9]; [36]
  MIC: 1000 µM (≈ 241 µg/mL)
[9]; [37]
  MIC: > 1000 µM
[10]; [38]
  MIC: 1000 µM (≈ 241 µg/mL)
[10]; [39]
  MIC: 1000 µM (≈ 241 µg/mL)
[10]; [40]
  MIC: 1000 µM (≈ 241 µg/mL)
[11]; [41]
  MIC: > 500 µM
[11]; [42]
  MIC: > 500 µM
Candida tropicalis 156; 24 h, read-out: MIC CT 24 h
  MIC: > 500 µM
Candida tropicalis 156; 48 h, read-out: MIC CT 48 h
  MIC: > 500 µM
Candida krusei E28; 24 h, read-out: MIC CK 24 h
  MIC: > 500 µM
Candida krusei E28; 48 h, read-out: MIC CK 48 h
  MIC: > 500 µM
Candida glabrata 20/I; 24 h, read-out: MIC CG 24 h
  MIC: > 500 µM
Candida glabrata 20/I; 48 h, read-out: MIC CG 48 h
  MIC: > 500 µM
Trichosporon asahii 1188; 24 h, read-out: MIC TA 24 h
  MIC: > 500 µM
Trichosporon asahii 1188; 48 h, read-out: MIC TA 48 h
  MIC: > 500 µM
[12]; 24 h, read-out: MIC AF 24 h
  MIC: > 500 µM
[12]; 48 h, read-out: MIC AF 48 h
  MIC: > 500 µM
[13]; 24 h, read-out: MIC LC 24 h
  MIC: > 500 µM
[13]; 48 h, read-out: MIC LC 48 h
  MIC: > 500 µM
[14]; 72 h, read-out: MIC TI 72 h
  MIC: > 500 µM
[14]; 120 h, read-out: MIC TI 120 h
  MIC: > 500 µM
[15]
  MIC, antibacterial activity: avoided any antibacterial action
[16]
  MIC, antimycobacterial activity: only negligible antimycobacterial activity
Eight fungal strains
  MIC, antifungal activity: no antimycotic potency
[17]
  MIC KP-E 24 h: >500 µM
  MIC KP-E 48 h: >500 µM
[18]
  MIC KP 24 h: >500 µM
  MIC KP 48 h: >500 µM

— article PMC7023430, “4-Aminobenzoic Acid Derivatives: Converting Folate Precursor to Antimicrobial and Cytotoxic Agents” (Biomolecules, 2019)
